According to PMC10720538, “Population pharmacokinetic modeling and target attainment analyses of rezafungin for the treatment of candidemia and invasive candidiasis” (Antimicrobial Agents and Chemotherapy, 2023):
*1 amine or outer side, *2 acyl side, *3 side chain or, on linkers, in order; H or OH if unused. Where a SMILES comes first, the peptide text is derived from it. Bridges are numbered along the chain shown (N, C = ends). [ ]: non-standard residue; d: D form. The star is where a group is joined. Orn(4R-OH,5R-OCH2CH2NMe3+) = C[N+](C)(C)CCO[C@@H](N[*:3])[C@H](O)C[C@H](N[*:1])C(=O)[*:2]; pTerphenylCO(4''-OnC5H11) = CCCCCOc1ccc(-c2ccc(-c3ccc(C(=O)*)cc3)cc2)cc1; hTyr(3S-OH,4S-OH) = N[C@H](C(=O)O)[C@H](O)[C@@H](O)c1ccc(O)cc1; Pro(3S-OH,4S-Me) = C[C@H]1CN[C@H](C(=O)O)[C@H]1O; Hyp = O=C(O)[C@@H]1C[C@@H](O)CN1

Assays:
[1] = system: Candida albicans; settings: CLSI MIC, neutropenic mouse, ref Lepak et al., 2018 (e02154-17), cited from earlier work
Experimental: (§1) TABLE 4 Nonclinical pharmacokinetic/pharmacodynamic targets, by species^a^,^b^,^c | column: Stasis / fAUC0–168h/MIC median; 1-Log drop / fAUC0–168h/MIC median || FIG 4 Probability of pharmacokinetic/pharmacodynamic target attainment for 400 mg rezafungin against Candida species using CLSI methodology. f, free. TEXT PRINTED IN THE PICTURE: no label printed: Candida albicans − fAUC/MIC Targets: CLSI Target: Stasis 20.5; Candida albicans − fAUC/MIC Targets: CLSI Target: 1-Log Drop in CFU 37.2; Candida glabrata − fAUC/MIC Targets: CLSI Target: Stasis 0.5; Candida glabrata − fAUC/MIC Targets: CLSI Target: 1-Log Drop in CFU 2.94; Candida parapsilosis − fAUC/MIC Targets: CLSI Target: Stasis 18.2; Candida auris − fAUC/MIC Targets: CLSI Target: Stasis 12.1; Can ...

[2] = system: Candida dubliniensis; settings: CLSI MIC, neutropenic mouse, ref Lepak et al., 2019 (e01556-19), cited from earlier work
Experimental: as §1

[3] = system: Candida glabrata; settings: CLSI MIC, neutropenic mouse, ref Lepak et al., 2018 (e02154-17), cited from earlier work
Experimental: as §1

[4] = system: Candida auris; settings: CLSI MIC, neutropenic mouse, published fAUC0–24 h/MIC target multiplied by 7, ref Lepak et al., 2018 (e01572-18), cited from earlier work
Experimental: as §1

[5] = system: Candida tropicalis; settings: CLSI MIC, neutropenic mouse, ref Lepak et al., 2019 (e01556-19), cited from earlier work
Experimental: as §1

[6] = Population pharmacokinetic model of rezafungin (three-compartment, NONMEM) from plasma concentrations of Phase 1, 2 and 3 studies; assay type: in vivo, human
Experimental: Data from single- and multiple-dose studies in healthy volunteers and patients, with doses ranging from 50 to 1,400 mg, were included in the PK analysis. All doses of rezafungin were administered via IV infusion. The PK data set consisted of a total of 2,512 rezafungin concentration records from 277 subjects, of which five records were identified as below the lower limit of quantitation postdose and five other records were identified as above 50 µg/mL, which was the upper limit of quantitation. Those records together represent less than 0.5% of the observed concentrations and were excluded from the analysis.
Starting from the previously developed four-compartment PK model ([13]), structurally simpler two- and three-compartment models with IIV in various parameters were developed and compared. During the initial modeling exercise, eight additional records were identified as outliers using conditional weighted residuals greater than 5 or smaller than −5 as a criterion and were excluded from model development. […] The two other compartments were considered peripheral distribution compartments (V2 and V3). When IIVs in V2 and V3 were included in the model, it was recognized that the individual IIVs on V2 and V3 were highly correlated, and, in addition, the typical estimates of V2 and V3 were very similar. Therefore, a model with a shared IIV term and with a single shared parameter for V2 and V3 [peripheral volume (V23)] was tested. […] The estimation of a four-compartment model achieved a moderate improvement in the value of the objective function (VOF) (a decrease of 49 points). However, there was no discernible improvement in the goodness-of-fit model diagnostics, and the residual error was nearly identical. Therefore, the three-compartment structural model was considered to adequately describe the PK of rezafungin without overparameterization. The inclusion of IIV terms was tested on various PK parameters, including clearance (CL), central volume of distribution (V1), V23, intercompartmental clearance 1 (Q2), and intercompartmental clearance 2 (Q3). Interindividual variability terms on CL, V1, and V23 were sufficient to achieve good individual predictions. For the residual variability (RV), the constant coefficient of variation (CCV) and combined additive and proportional error models were tested.
The final PK model of rezafungin is a three-compartment model with first-order elimination, characterized by the parameters CL, V1, V23, Q2, and Q3. The variability model included IIV in V1, V23, and CL, their covariances, and a proportional RV model (Table 2). All fixed and random effect parameters, including those of the covariance terms, were estimated with reasonable precision (<39%RSE). The magnitudes of the IIV parameters were moderate for all parameters: 30.5 coefficient of variation expressed as a percent (%CV) for CL, 37.6%CV for V1, and 29.3%CV for V23. Eta shrinkage was low for all parameters (<11%), and the residual error was also low (9.74%CV).
Data were obtained from five Phase 1 studies (CD101.IV.1.01, CD101.IV.1.02, CD101.IV.1.06, CD101.IV.1.07, and CD101.IV.1.15), a Phase 2 study (CD101.IV.2.03; STRIVE), and a Phase 3 study (CD101.IV.3.05; ReSTORE) (Table S1). All study participants met the inclusion and exclusion criteria for the study in which they were enrolled. All clinical studies were conducted in compliance with International Council for Harmonisation guidelines on Good Clinical Practice.
Dosing regimens for rezafungin are described in Table S1. Data from both single- and multiple-dose studies, with doses ranging from 50 to 1,400 mg, were included in this analysis. All doses of rezafungin were administered via IV infusion.
Dense PK samples were collected in the Phase 1 studies, and a mixture of dense and sparse PK samples were collected in the Phase 2 and Phase 3 studies. […]

[7] = mouse plasma; cited from earlier work
Experimental: Using each simulated patient’s Bayesian PK parameters and dose amounts, simulations were performed to obtain plasma concentration profiles. […] For the purposes of target attainment analyses, AUC0–168h after the first dose was used (day 1). Protein binding of 99.2% in mouse plasma and of 97.4% in human (presumed healthy) plasma has been reported ([34]).

[8] = final population PK model, population mean
[9] = final population PK model, population mean, covariate effect

CCCCCOc1ccc(-c2ccc(-c3ccc(C(=O)N[C@H]4C[C@@H](O)[C@@H](OCC[N+](C)(C)C)NC(=O)[C@@H]5[C@@H](O)[C@@H](C)CN5C(=O)[C@H]([C@@H](C)O)NC(=O)[C@H]([C@H](O)[C@@H](O)c5ccc(O)cc5)NC(=O)[C@@H]5C[C@@H](O)CN5C(=O)[C@H]([C@@H](C)O)NC4=O)cc3)cc2)cc1 [rezafungin] ({pTerphenylCO(4''-OnC5H11)}-[Orn(4R-OH,5R-OCH2CH2NMe3+)]T[Hyp][hTyr(3S-OH,4S-OH)]T[Pro(3S-OH,4S-Me)]; lactam 1-C)
1-Log drop, fAUC0–168h/MIC median ([1]; 1-log10 drop in CFU): 37.2
Stasis, fAUC0–168h/MIC median ([1]; net fungal stasis): 20.5
1-Log drop, fAUC0–168h/MIC median ([2]; 1-log10 drop in CFU): 228.3
Stasis, fAUC0–168h/MIC median ([2]; net fungal stasis): 35.1
1-Log drop, fAUC0–168h/MIC median ([3]; 1-log10 drop in CFU): 2.94
Stasis, fAUC0–168h/MIC median ([3]; net fungal stasis): 0.5
1-Log drop, fAUC0–168h/MIC median ([4]; 1-log10 drop in CFU): 38.4
Stasis, fAUC0–168h/MIC median ([4]; net fungal stasis): 12.1
1-Log drop, fAUC0–168h/MIC median ([5]; 1-log10 drop in CFU): 148.9
Stasis, fAUC0–168h/MIC median ([5]; net fungal stasis): 86.5
CL ([6]; BSA 1.3 m^2, based on the final model estimates): 0.235 L/h
CL ([6]; BSA 2.6 m^2, based on the final model estimates): 0.433 L/h
lower CL in healthy subjects than infected subjects or those with hepatic impairment ([6]; final model estimates): 27.6%
Q2, Distribution clearance 1 [6, 8]: 0.236 L/h
Q3, Distribution clearance 2 [6, 8]: 12.4 L/h
V23, Peripheral volume 1 and 2 ([6]; final population PK model, population mean, BSA 1.9 m^2, ALB 3.2 g/dL): 19.1 L
CL, Central clearance ([6]; final population PK model, population mean, IV infusion, 277 subjects, typical value for disease state, BSA 1.9 m^2): 0.328 L/h
Exponent of (BSA/1.9) for V1 [6, 9]: 1.56
Exponent of (BSA/1.9) for V23 [6, 9]: 1.17
V1, Central volume ([6]; final population PK model, population mean, typical value for disease state, BSA 1.9 m^2): 17.7 L
Protein binding [7]: 99.2%
